Source: ChEMBL document CHEMBL3580620, “Anti-inflammatory and antitumor phenylpropanoid sucrosides from the seeds of Raphanus sativus” (Bioorg Med Chem Lett, 2014)
≈ marks a conversion by molar mass, not a printed value.

Key:
A549 = test: Cytotoxicity against human A549 cells assessed as cell growth inhibition after 48 hrs by SRB assay; assay type: functional, cell-based; details: A549, 48 h
[1] = Antioxidant activity assessed as DPPH radical scavenging activity after 10 mins by spectrophotomteric analysis; assay type: physicochemical
BV-2 = test: Inhibition of LPS-induced nitric oxide production in mouse BV2 cells treated for 30 mins prior to LPS stimulation for 24 hrs by Griess assay; assay type: functional, cell-based
[2] = Cytotoxicity against mouse BV2 cells assessed as inhibition of cell viability up to 50 uM by MTT assay; assay type: cell-based; details: bv-2
SK-MEL-2 = test: Cytotoxicity against human SK-MEL-2 cells assessed as cell growth inhibition after 48 hrs by SRB assay; assay type: functional, cell-based; details: SK-MEL-2, 48 h
SK-OV-3 = test: Cytotoxicity against human SKOV3 cells assessed as cell growth inhibition after 48 hrs by SRB assay; assay type: functional, cell-based; details: SK-OV-3, 48 h
HCT-15 = test: Cytotoxicity against human HCT15 cells assessed as cell growth inhibition after 48 hrs by SRB assay; assay type: functional, cell-based; details: HCT-15, 48 h
RAW264.7 = test: Inhibition of LPS-induced nitric oxide production in mouse RAW264.7 cells at 100 uM; assay type: functional
[3] = Cytotoxicity against mouse BV2 cells assessed as inhibition of cell viability by MTT assay; assay type: cell-based, BV-2; details: read-out: INH

SMILES | IC50 (A549) | IC50 [1] | IC50 (BV-2) | Activity [2] | IC50 (SK-MEL-2) | IC50 (SK-OV-3) | IC50 (HCT-15) | inhibition at 100 µM (RAW264.7) | cytotoxicity [3]
OC[C@H]1O[C@@](CO)(O[C@H]2O[C@H](CO)[C@@H](O)[C@H](O)[C@H]2O)[C@@H](O)[C@@H]1O [SUCROSE] | > 30 µM | Not Active | > 200 µM | Non-toxic | > 30 µM | > 30 µM | > 30 µM |  | 
COc1cc(/C=C/CO[C@@H]2O[C@H](CO)[C@@H](O)[C@H](O)[C@H]2O)ccc1O |  |  |  |  |  |  |  | 50% | 
COc1cc(/C=C/C(=O)OC[C@H]2O[C@@](CO)(O[C@H]3O[C@H](COC(=O)/C=C/c4cc(OC)c(O)c(OC)c4)[C@@H](O)[C@H](O)[C@H]3O)[C@@H](OC(=O)/C=C/c3cc(OC)c(O)c(OC)c3)[C@@H]2O)cc(OC)c1O | 20.8 µM | 44.59 µg/mL (≈ 46.4 µM) | 21.6 µM | Non-toxic | 9.5 µM | 6.71 µM | 12.4 µM |  | 
O=C1O[C@H]([C@@H](O)CO)C(O)=C1O [ASCORBIC ACID] |  | 7.63 µg/mL (≈ 43.3 µM) |  |  |  |  |  |  | 
COc1cc(/C=C/C(=O)OC[C@H]2O[C@H](O[C@]3(CO)O[C@H](CO)[C@@H](O)[C@@H]3OC(=O)/C=C/c3ccc(O)c(OC)c3)[C@H](O)[C@@H](O)[C@@H]2O)ccc1O | > 30 µM | 35.33 µg/mL (≈ 50.9 µM) | 45.5 µM | Non-toxic | 27.9 µM | 20 µM | 17.8 µM |  | 
COc1cc(/C=C/C(=O)OC[C@H]2O[C@H](O[C@]3(CO)O[C@H](CO)[C@@H](O)[C@@H]3OC(=O)/C=C/c3cc(OC)c(O)c(OC)c3)[C@H](O)[C@@H](O)[C@@H]2O)cc(OC)c1O | 21.1 µM | 29.63 µg/mL (≈ 39.3 µM) | 37.1 µM | Non-toxic | 14.2 µM | 16.7 µM | 17.2 µM |  | 
COc1cccc2c1C(=O)c1c(O)c3c(c(O)c1C2=O)C[C@@](O)(C(=O)CO)C[C@@H]3O[C@H]1C[C@H](N)[C@H](O)[C@H](C)O1 [DOXORUBICIN] |  |  |  |  | 0.001 µM | 0.012 µM |  |  | 
COc1cc(/C=C/C(=O)OC[C@H]2O[C@H](O[C@]3(CO)O[C@H](CO)[C@@H](O)[C@@H]3OC(=O)/C=C/c3cc(OC)c(OC)c(OC)c3)[C@H](O)[C@@H](O)[C@@H]2O)cc(OC)c1O | 26 µM | 54.98 µg/mL (≈ 71.5 µM) | 27 µM | Non-toxic | 21.6 µM | 24.6 µM | 18.3 µM |  | 
OC[C@H]1O[C@@H](OC/C=C/c2ccc(O)cc2)[C@H](O)[C@@H](O)[C@@H]1O |  |  |  |  |  |  |  | 50% | 
COc1cc(/C=C/C(=O)O[C@H]2[C@H](OC(=O)/C=C/c3cc(OC)c(O)c(OC)c3)[C@@H](CO)O[C@@]2(CO)O[C@H]2O[C@H](COC(=O)/C=C/c3cc(OC)c(O)c(OC)c3)[C@@H](O)[C@H](O)[C@H]2O)ccc1O | 26.9 µM | 23.05 µg/mL (≈ 24.8 µM) | 34.8 µM | Non-toxic | 16.7 µM | 23.8 µM | 18.9 µM |  | 
COc1cc(/C=C/C(=O)OC[C@H]2O[C@H](O[C@]3(CO)O[C@H](CO)[C@@H](OC(=O)/C=C/c4cc(OC)c(O)c(OC)c4)[C@@H]3OC(=O)/C=C/c3cc(OC)c(O)c(OC)c3)[C@H](O)[C@@H](O)[C@@H]2O)cc(OC)c1O | 25.9 µM | 27.1 µg/mL (≈ 28.2 µM) | 48.9 µM | Non-toxic | 18.6 µM | 19.2 µM | 14.1 µM |  | 
COc1cc(/C=C/C(=O)O[C@H]2[C@H](O)[C@@H](CO)O[C@@]2(CO)O[C@H]2O[C@H](CO)[C@@H](O)[C@H](O)[C@H]2O)cc(OC)c1O | 23.9 µM | 78.2 µg/mL (≈ 143 µM) | 37.4 µM |  | 23.9 µM | 20.5 µM | 27 µM |  | 15%
